In patent US11077163B2, “Peptide for treating ocular diseases and composition for treating ocular diseases comprising same” (GemVax & KAEL CO., LTD., priority 2015, dated 2021):

How the values were obtained:
Assay type in all cases: in vivo, Brown Norway rats
[1] = tested on: laser-induced choroidal neovascularization (CNV); test: CNV thickness by optical coherence tomography (OCT) in laser-induced CNV animal model; conditions: subcutaneous once a day
Excerpt: Brown Norway rats were anesthetized, and pupils of the eyes were dilated using 0.5% phenylephrine (pupillary dilatation). The target rats having the dilated pupils of the eyes were irradiated with a 577 nm laser (577 nm, diode, 10 μm, 0.05 seconds) 6 to 8 times per eye to cause neovascularization in the choroid. Upon laser irradiation, the eyes were covered with a cover glass, and the rupture of Bruch's membranes was confirmed from the fact that bubbles occurred during irradiation with lasers using a slit lamp delivery system. In a laser-induced CNV […] model, the rats were randomized to experimental groups in which the peptide pep1 prepared by the method disclosed in Example 1 was administered at three doses of 0.1, 1, and 10 nM, and the control (vehicle) in which pep1 was not administered, and a drug was subcutaneously administered to the rats once a day for a period of time starting from the day before 3 days of laser irradiation to 2 weeks after the laser irradiation. To compare the CNV activities between various groups, a Kruskal-Wallis test was used. […] The groups in which pep1 was administered and the control complied with the experimental groups disclosed in Example 2, and the thicknesses of all lesions in each of the groups were measured to check whether there was a difference in CNV thicknesses between the groups.

[2] = tested on: laser-induced choroidal neovascularization (CNV); test: CNV area by isolectin staining of retinal pigment epithelium-choroid-sclera tissues in laser-induced CNV animal model; conditions: subcutaneous once a day, isolectin-stained area at 2 weeks after laser
Excerpt: Brown Norway rats were anesthetized, and pupils of the eyes were dilated using 0.5% phenylephrine (pupillary dilatation). The target rats having the dilated pupils of the eyes were irradiated with a 577 nm laser (577 nm, diode, 10 μm, 0.05 seconds) 6 to 8 times per eye to cause neovascularization in the choroid. Upon laser irradiation, the eyes were covered with a cover glass, and the rupture of Bruch's membranes was confirmed from the fact that bubbles occurred during irradiation with lasers using a slit lamp delivery system. […] An area of tissues stained with isolectin specific to vascular endothelial cells was measured to determine CNV areas in the control and the groups in which pep1 was administered. The groups in which pep1 was administered and the control complied with the experimental groups disclosed in Example 2, and the thicknesses of all lesions in each of the groups were measured to check whether there was a difference in CNV areas between the groups.

[3] = tested on: laser-induced choroidal neovascularization (CNV); test: Angiographic leakage in the choroid by fluorescein angiography (FAG) in laser-induced CNV animal model; conditions: subcutaneous once a day, FAG at 2 weeks after laser
Excerpt: Brown Norway rats were anesthetized, and pupils of the eyes were dilated using 0.5% phenylephrine (pupillary dilatation). The target rats having the dilated pupils of the eyes were irradiated with a 577 nm laser (577 nm, diode, 10 μm, 0.05 seconds) 6 to 8 times per eye to cause neovascularization in the choroid. Upon laser irradiation, the eyes were covered with a cover glass, and the rupture of Bruch's membranes was confirmed from the fact that bubbles occurred during irradiation with lasers using a slit lamp delivery system. In a laser-induced CNV […] model, the rats were randomized to experimental groups in which the peptide pep1 prepared by the method disclosed in Example 1 was administered at three doses of 0.1, 1, and 10 nM, and the control (vehicle) in which pep1 was not administered, and a drug was subcutaneously administered to the rats once a day for a period of time starting from the day before 3 days of laser irradiation to 2 weeks after the laser irradiation. To compare the CNV activities between various groups, a Kruskal-Wallis test was used. In this case, the comparison between two groups was performed using a Mann-Whitney U test. A p value was considered to be statistically significant when the p value was less than 0.05. After CNV was induced with lasers, the rats in the groups in which pep1 was administered and the rats in the control were anesthetized after the elapse of 2 weeks, and a contrast medium was intraperitoneally injected at a dose of 0.1 mL (10% fluorescein disodium salt). Levels of angiographic leakage in the choroid between the control and the groups in which pep1 was administered were compared using fluorescein angiography (FAG). The groups in which pep1 was administered and the control complied with the experimental groups disclosed in Example 2, and the leakage levels at all lesions in each of the groups were measured to check whether there was a difference in angiographic leakage in the choroid between the groups. […]

In the case of “EARPALLTSRLRFIPK (listed as Homo sapiens) [pep1, telomerase-derived peptide of 16 amino acids, location [611-626] on human telomerase]”, the “CNV thickness compared to the control” value ([1]; all groups 0.1, 1 and 10 nM, from 3 days before to 2 weeks after laser irradiation, OCT at 2 weeks) is reported as “statistically significantly reduced”, the “CNV thickness compared to the control” value ([1]; group at 1 nM, OCT at 2 weeks after laser) is reported as “most drastically reduced” and the “CNV area compared to the control” value ([2]; all groups 0.1, 1 and 10 nM) is reported as “statistically significantly reduced”. For the same sequence, the “CNV area compared to the control” value ([2]; group at 1 nM) was “most drastically reduced”, the “angiographic leakage level compared to the control” value ([3]; all groups 0.1, 1 and 10 nM) was “reduced” and the “ratio of lesions with Grade 2B (clinically severe leakage level) compared to the control” value ([3]; all groups 0.1, 1 and 10 nM) was “reduced”. For the same sequence, the “ratio of lesions with Grade 2B (clinically severe leakage level) compared to the control” value ([3]; groups at 1 and 10 nM) was “drastically reduced”.
